The text below walks through data of patent US8357634B2, “N-alkoxycarboxamides and their use as microbiocides” (Syngenta Crop Protection LLC, priority 2009, dated 2013).

The inhibition is the percentage by which the read-out fell short of the control. What is called melting point is the temperature, or range, at which the solid turns liquid.

Data set [1] has as its system Mycosphaerella praminicola (Seotoria tritici). Put plainly: Example B-16: Mycosphaerella graminicola (Septoria tritici) / liquid culture (comparative). Type of data set: cell-based. The conditions noted are these: 96 h, 24° C., photometric after 4 days, read-out: inhibition of growth. As for the experimental part: Mycosphaerella praminicola (Seotoria tritici)/Liquid Culture (Septoria Blotch) Conidia of the fungus from cryogenic storage were directly mixed into nutrient broth (PDB potato dextrose broth). After placing a (DMSO) solution of the test compounds into a microtiter plate (96-well format) the nutrient broth containing the fungal spores was added. The test plates were incubated at 24° C. and the inhibition of growth is measured photometrically after 4 days.

The subject of a further data set is Botrvtis cinerea. Put plainly: Example B-1: Action against Botrytis cinerea, fungal growth assay. The conditions noted are these: 0.002% active ingredient, PDB broth, 24° C., photometric after 3-4 days. It counts as cell-based. As for the experimental part: Action against Botrvtis cinerea—fungal growth assay Conidia of the fungus from cryogenic storage was directly mixed into nutrient broth (PDB potato dextrose broth). After placing a (DMSO) solution of the test compounds (0.002% active ingredient) into a microtiter plate (96-well format) the nutrient broth containing the fungal spores was added. The test plates were incubated at 24° C. and the inhibition of growth was measured photometrically after 3-4 days. The activity of a compound was expressed as fungal growth inhibition (0=no growth inhibition, ratings of 80% to 99% mean good to very good inhibition, 100%=complete inhibition).

In data set [2] the test system is Monographella nivalis (anamorph: Fusarium nivale, Microdochium nivale). Put plainly: Example B-4: Action against Monographella nivalis, fungal growth assay. It counts as cell-based. The conditions noted are these: 0.002% active ingredient, PDB broth, 24° C., photometric after 72 hrs. As for the experimental part: Action Against Monographella nivalis (anamorph: Fusarium nivale, Microdochium nivale; Snow Mould)—Fungal Growth Assay Conidia of the fungus from cryogenic storage were directly mixed into nutrient broth (PDB potato dextrose broth). After placing a DMSO-solution of the test compounds (0.002% active ingredient) into a microtiter plate (96-well format) the nutrient broth containing the fungal spores was added. The test plates were incubated at 24° C. and the inhibition of growth was measured photometrically after 72 hrs (0=no growth inhibition, ratings of 80% to 99% mean good to very good inhibition, 100%=complete inhibition).

Another data set concerns Alternaria solani. Put plainly: Example B-13: Alternaria solani / tomato / leaf disc (comparative). The conditions noted are these: 4 dpi. It counts as in vivo. As for the experimental part: Alternaria solani/Tomato/Leaf Disc (Early Blight) Tomato leaf disks were placed on water agar in multiwell plates (24-well format) and sprayed with test solutions. After drying, the leaf disks were inoculated with a spore suspension of the fungus. After appropriate incubation the activity of a compound was assessed 4 dpi (days after inoculation) as preventive fungicidal activity.

A further data set concerns Gaeumannomyces graminis. Kind of data set: Example B-17: Gaeumannomyces graminis / liquid culture (comparative). Type of data set: cell-based. The note with it: 24 C, photometric after 2-3 days, read-out: inhibition of growth. As to the method: Gaeumannomyces graminis/Liquid Culture (Take-All of Cereals) Mycelial fragments of the fungus from cryogenic storage were directly mixed into nutrient broth (PDB potato dextrose broth). After placing a (DMSO) solution of the test compounds into a microtiter plate (96-well format) the nutrient broth containing the fungal spores was added. The test plates were incubated at 24 C and the inhibition of growth was determined photometrically after 2-3 days.

`CON(C(=O)c1cn(C)nc1C(F)F)C(C)c1ccc(Cl)cc1Cl` (stereo not drawn) [Compound 1.023] had a melting point of 135 to 141 °C. The inhibition at 6 ppm in data set [1] (6 ppm) was 100%. Also, in data set [1] (20 ppm), the inhibition at 20 ppm came out at 100%. For the same molecule, in data set [1] (60 ppm), the inhibition at 60 ppm was found to be 100%. In addition, the inhibition at 0.002 % strength in the data set on Botrvtis cinerea was ≥ 80%. In addition, the inhibition at 0.002 % strength in data set [2] is ≥ 50%. The same molecule had a preventive fungicidal activity with Alternaria solani (20 ppm) of 90. This molecule also displayed a preventive fungicidal activity with Alternaria solani (60 ppm) of 100. In the data set on Alternaria solani (200 ppm), the preventive fungicidal activity is 100. Moreover, in the data set with Gaeumannomyces graminis (6 ppm), the inhibition at 6 ppm was found to be 0%. Also, the inhibition at 20 ppm in the data set on Gaeumannomyces graminis (20 ppm) stood at 0%. Besides, in the data set with Gaeumannomyces graminis (60 ppm), the inhibition at 60 ppm amounted to 50%.
